This is an account of results in US20240299387A1, “HETEROCYCLIC EGFR INHIBITORS FOR USE IN THE TREATMENT OF CANCER” (Blueprint Medicines Corporation, priority 2021, published 2024).

One test has as its target T1, EGFR (L858R T790M C797S) (Homo sapiens, UniProt P00533, C797S/L858R/T790M).
T1 construct: purchased SignalChem E10-122VG
Briefly: Biochemical EGFR inhibition assay (Caliper mobility shift), EGFR LRTMCS mutant. Particulars: LRTMCS (PH) IC50 (nM) @ 1 mM ATP (Num). The gist of the method: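 Kinase reactions proceed at 25° C. to 10%–20% conversion of total peptide, are terminated with 35 mM EDTA, and the phosphopeptide is resolved from substrate by electrophoretic mobility shift. Apparent IC50 values come from plotting percent activity against log compound concentration.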

The target in test [1] is T2, EGFR L858R T790M in NCI-H1975 cell line (Homo sapiens, UniProt P00533, L858R/T790M).
T2 construct: host or cells: NCI-H1975
As to the kind of experiment: NCI-H1975 pEGFR AlphaLISA assay. It is filed as cell-based. Particulars: NCI-H1975 cells (EGFR L858R T790M), p-EGFR (Tyr1068), 4-5 hours incubation; read-out: Ext pEGFR H1975 GMean IC50 (nM) Protocol: @Pharmaron AlphaLISA (Num). The gist of the method:
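Phospho-EGFR measured by AlphaLISA after overnight donor-bead incubation; IC50 from percent pEGFR inhibition versus log concentration.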

The subject of test [2] is EGFR mutant NSCLC (EGFR M+). The conditions noted are these: NSCLC patients; average treatment time to resistance; cited from earlier work.

A value given as a limit tells only on which side of the number the result lay.

T1 sequence (P00533 25-1210 T790M/C797S/L858R): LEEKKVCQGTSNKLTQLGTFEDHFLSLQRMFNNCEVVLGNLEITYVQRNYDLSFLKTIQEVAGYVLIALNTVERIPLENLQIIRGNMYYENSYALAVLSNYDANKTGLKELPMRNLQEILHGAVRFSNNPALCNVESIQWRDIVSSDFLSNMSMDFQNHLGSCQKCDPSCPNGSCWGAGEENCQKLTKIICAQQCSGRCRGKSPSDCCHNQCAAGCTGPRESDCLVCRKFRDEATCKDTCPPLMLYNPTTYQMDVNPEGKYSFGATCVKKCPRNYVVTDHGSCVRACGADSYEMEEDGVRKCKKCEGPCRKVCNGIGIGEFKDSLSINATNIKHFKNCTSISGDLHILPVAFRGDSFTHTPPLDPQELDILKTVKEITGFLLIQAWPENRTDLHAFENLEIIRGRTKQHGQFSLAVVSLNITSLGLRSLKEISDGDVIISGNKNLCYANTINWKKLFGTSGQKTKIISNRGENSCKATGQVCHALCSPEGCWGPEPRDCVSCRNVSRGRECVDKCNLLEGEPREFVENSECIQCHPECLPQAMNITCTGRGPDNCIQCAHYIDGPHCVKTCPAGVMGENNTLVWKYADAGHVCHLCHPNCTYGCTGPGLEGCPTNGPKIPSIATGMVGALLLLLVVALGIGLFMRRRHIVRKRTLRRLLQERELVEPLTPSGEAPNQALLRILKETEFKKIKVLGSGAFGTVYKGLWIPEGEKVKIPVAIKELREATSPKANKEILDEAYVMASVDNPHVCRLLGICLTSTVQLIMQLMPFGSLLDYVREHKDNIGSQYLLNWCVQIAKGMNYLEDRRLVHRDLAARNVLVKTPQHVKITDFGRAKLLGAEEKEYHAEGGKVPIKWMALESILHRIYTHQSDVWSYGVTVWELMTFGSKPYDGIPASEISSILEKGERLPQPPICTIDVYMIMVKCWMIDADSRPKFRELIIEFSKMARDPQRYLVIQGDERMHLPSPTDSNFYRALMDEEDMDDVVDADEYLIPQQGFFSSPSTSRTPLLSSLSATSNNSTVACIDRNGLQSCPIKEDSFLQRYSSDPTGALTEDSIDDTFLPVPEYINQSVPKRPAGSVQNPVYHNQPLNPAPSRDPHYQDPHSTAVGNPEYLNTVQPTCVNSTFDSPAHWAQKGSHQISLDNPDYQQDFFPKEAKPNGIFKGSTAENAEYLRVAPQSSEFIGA
T2 sequence (P00533 25-1210 T790M/L858R): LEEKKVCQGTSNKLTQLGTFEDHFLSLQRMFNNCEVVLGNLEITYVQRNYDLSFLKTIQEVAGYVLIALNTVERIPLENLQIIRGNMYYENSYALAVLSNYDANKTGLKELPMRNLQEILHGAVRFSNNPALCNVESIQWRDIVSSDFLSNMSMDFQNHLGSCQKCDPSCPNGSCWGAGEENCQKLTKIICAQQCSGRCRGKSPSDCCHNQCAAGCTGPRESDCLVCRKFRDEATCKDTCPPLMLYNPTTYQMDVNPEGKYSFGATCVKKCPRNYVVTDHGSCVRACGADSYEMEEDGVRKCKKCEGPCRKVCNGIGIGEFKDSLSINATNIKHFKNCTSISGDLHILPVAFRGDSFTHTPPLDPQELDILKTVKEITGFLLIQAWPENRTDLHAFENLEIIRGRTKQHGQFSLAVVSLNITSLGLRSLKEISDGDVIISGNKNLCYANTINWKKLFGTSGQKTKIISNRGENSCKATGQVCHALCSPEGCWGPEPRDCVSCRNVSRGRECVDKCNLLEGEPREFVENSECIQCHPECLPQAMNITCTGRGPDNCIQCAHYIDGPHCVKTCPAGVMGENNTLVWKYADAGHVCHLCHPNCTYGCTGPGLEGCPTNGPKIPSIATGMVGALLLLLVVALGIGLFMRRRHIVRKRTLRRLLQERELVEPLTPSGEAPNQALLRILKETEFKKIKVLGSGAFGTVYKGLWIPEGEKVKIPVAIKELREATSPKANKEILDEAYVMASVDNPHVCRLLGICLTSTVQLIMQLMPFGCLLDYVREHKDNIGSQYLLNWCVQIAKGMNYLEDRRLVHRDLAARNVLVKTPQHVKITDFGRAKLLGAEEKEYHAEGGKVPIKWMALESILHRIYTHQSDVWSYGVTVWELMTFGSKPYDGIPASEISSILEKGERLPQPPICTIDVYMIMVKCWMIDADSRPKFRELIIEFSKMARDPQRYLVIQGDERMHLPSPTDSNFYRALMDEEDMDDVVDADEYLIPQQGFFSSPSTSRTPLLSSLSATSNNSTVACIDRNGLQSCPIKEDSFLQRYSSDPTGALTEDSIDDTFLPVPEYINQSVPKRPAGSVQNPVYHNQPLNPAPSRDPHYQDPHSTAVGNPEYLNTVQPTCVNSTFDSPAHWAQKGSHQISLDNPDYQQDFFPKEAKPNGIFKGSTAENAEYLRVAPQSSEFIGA

On to `CC(C)c1cnc(C(=O)N[C@@H](C)CF)c2cnc(Nc3ccnc(N4CC[C@@H](O)[C@@](C)(F)C4)n3)cc12` [Example 72, 6-((2-((3S,4R)-3-fluoro-4-hydroxy-3-methylpiperidin-1-yl)pyrimidin-4-yl)amino)-N-((S)-1-fluoropropan-2-yl)-4-isopropyl-2,7-naphthyridine-1-carboxamide], for which the IC50 (usually the concentration at which inhibition is half-maximal) at EGFR (L858R T790M C797S) was 15 to 20 nM; in test [1] it was greater than 50 nM.
For the compound `CO[C@H]1C[C@@H](NC(=O)c2ncc(C(C)C)c3cc(Nc4ccnc(N5CC[C@@H](O)[C@@](C)(F)C5)n4)ncc23)C1` [Example 73, 6-((2-((3S,4R)-3-fluoro-4-hydroxy-3-methylpiperidin-1-yl)pyrimidin-4-yl)amino)-4-isopropyl-N-((1s,3s)-3-methoxycyclobutyl)-2,7-naphthyridine-1-carboxamide], the IC50 was less than 15 nM on EGFR (L858R T790M C797S) and 20 to 30 nM in test [1].
In the case of `CO[C@H]1C[C@H](NC(=O)c2ncc(C(C)C)c3cc(Nc4ccnc(N5CC[C@@H](O)[C@@](C)(F)C5)n4)ncc23)C1` [Example 74, 6-((2-((3S,4R)-3-fluoro-4-hydroxy-3-methylpiperidin-1-yl)pyrimidin-4-yl)amino)-4-isopropyl-N-((1r,3r)-3-methoxycyclobutyl)-2,7-naphthyridine-1-carboxamide], the IC50 at EGFR (L858R T790M C797S) is less than 15 nM; in test [1], 20 to 30 nM.
On to `CC(C)c1cnc(C(=O)NC2CC(F)(F)C2)c2cnc(Nc3ccnc(N4CC[C@@H](O)[C@@](C)(F)C4)n3)cc12` [Example 75, N-(3,3-difluorocyclobutyl)-6-((2-((3S,4R)-3-fluoro-4-hydroxy-3-methylpiperidin-1-yl)pyrimidin-4-yl)amino)-4-isopropyl-2,7-naphthyridine-1-carboxamide], for which the figures for the IC50 (at EGFR (L858R T790M C797S); in test [1]) were less than 15 nM and 30 to 50 nM, respectively.
For the compound `CC(C)c1cnc(C(=O)NC2CS(=O)(=O)C2)c2cnc(Nc3ccnc(N4CC[C@@H](O)[C@@](C)(F)C4)n3)cc12` [Example 76, N-(1,1-dioxidothietan-3-yl)-6-((2-((3S,4R)-3-fluoro-4-hydroxy-3-methylpiperidin-1-yl)pyrimidin-4-yl)amino)-4-isopropyl-2,7-naphthyridine-1-carboxamide], the IC50 at EGFR (L858R T790M C797S) is less than 15 nM; in test [1], 30 to 50 nM.
In the case of `CC(C)c1cnc(C(=O)NCCN(C)C)c2cnc(Nc3ccnc(N4CC[C@@H](O)[C@@](C)(F)C4)n3)cc12` [Example 77, N-(2-(dimethylamino)ethyl)-6-((2-((3S,4R)-3-fluoro-4-hydroxy-3-methylpiperidin-1-yl)pyrimidin-4-yl)amino)-4-isopropyl-2,7-naphthyridine-1-carboxamide], the figures for the IC50 (on EGFR (L858R T790M C797S); in test [1]) were less than 15 nM and 30 to 50 nM, respectively.
In the case of `CC(C)c1cnc(C(=O)NC2CCOCC2)c2cnc(Nc3ccnc(N4CC[C@@H](O)[C@@](C)(F)C4)n3)cc12` [Example 78, 6-((2-((3S,4R)-3-fluoro-4-hydroxy-3-methylpiperidin-1-yl)pyrimidin-4-yl)amino)-4-isopropyl-N-(tetrahydro-2H-pyran-4-yl)-2,7-naphthyridine-1-carboxamide], the results for the IC50 (on EGFR (L858R T790M C797S); in test [1]) were 15 to 20 nM and 30 to 50 nM, respectively.
Turning to `CC(C)c1cnc(C(=O)N[C@H]2C[C@H](O)C2)c2cnc(Nc3ccnc(N4CC[C@@H](O)[C@@](C)(F)C4)n3)cc12` [Example 79, 6-((2-((3S,4R)-3-fluoro-4-hydroxy-3-methylpiperidin-1-yl)pyrimidin-4-yl)amino)-N-((1r,3r)-3-hydroxycyclobutyl)-4-isopropyl-2,7-naphthyridine-1-carboxamide], the IC50 is less than 15 nM at EGFR (L858R T790M C797S) and 30 to 50 nM in test [1].
The like results for `CC(C)c1cnc(C(=O)NC2CN(CCF)C2)c2cnc(Nc3ccnc(N4CC[C@@H](O)[C@@](C)(F)C4)n3)cc12` [Example 80, 6-((2-((3S,4R)-3-fluoro-4-hydroxy-3-methylpiperidin-1-yl)pyrimidin-4-yl)amino)-N-(1-(2-fluoroethyl)azetidin-3-yl)-4-isopropyl-2,7-naphthyridine-1-carboxamide] were, in that order, less than 15 nM and 20 to 30 nM.
As to `CC(C)c1cnc(C(=O)N[C@H]2C[C@@H](C#N)C2)c2cnc(Nc3ccnc(N4CC[C@@H](O)[C@@](C)(F)C4)n3)cc12` [Example 81, N-((1r,3r)-3-cyanocyclobutyl)-6-((2-((3S,4R)-3-fluoro-4-hydroxy-3-methylpiperidin-1-yl)pyrimidin-4-yl)amino)-4-isopropyl-2,7-naphthyridine-1-carboxamide], the IC50 on EGFR (L858R T790M C797S) is less than 15 nM; in test [1] it was 20 to 30 nM.
With `CC(C)c1cnc(C(=O)N[C@H]2C[C@@](C)(O)C2)c2cnc(Nc3ccnc(N4CC[C@@H](O)[C@@](C)(F)C4)n3)cc12` [Example 83, 6-((2-((3S,4R)-3-fluoro-4-hydroxy-3-methylpiperidin-1-yl)pyrimidin-4-yl)amino)-N-((1s,3s)-3-hydroxy-3-methylcyclobutyl)-4-isopropyl-2,7-naphthyridine-1-carboxamide], the IC50 at EGFR (L858R T790M C797S) was less than 15 nM; in test [1], 30 to 50 nM.
As for `CCO[C@H]1C[C@H](NC(=O)c2ncc(C(C)C)c3cc(Nc4ccnc(N5CC[C@@H](O)[C@@](C)(F)C5)n4)ncc23)C1` [Example 84, N-((1r,3r)-3-ethoxycyclobutyl)-6-((2-((3S,4R)-3-fluoro-4-hydroxy-3-methylpiperidin-1-yl)pyrimidin-4-yl)amino)-4-isopropyl-2,7-naphthyridine-1-carboxamide], the IC50 on EGFR (L858R T790M C797S) is less than 15 nM; in test [1], 20 to 30 nM.
Turning to `CNc1ccc(C(C)C)c2cc(Nc3ccnc(N4CC[C@@H](O)[C@@](C)(F)C4)n3)ncc12` [Example 91, (3S,4R)-3-fluoro-1-(4-((5-isopropyl-8-(methylamino)isoquinolin-3-yl)amino)pyrimidin-2-yl)-3-methylpiperidin-4-ol], the figures for the IC50 (at EGFR (L858R T790M C797S); in test [1]) were less than 15 nM and 20 to 30 nM, respectively.
The like results for `CNc1ncc(C(C)C)c2cc(Nc3ccnc(N4CC[C@@H](O)[C@@H](F)C4)n3)ncc12` [Example 92, (3S,4R)-3-fluoro-1-(4-((5-isopropyl-8-(methylamino)-2,7-naphthyridin-3-yl)amino)pyrimidin-2-yl)piperidin-4-ol] were, in that order, 30 to 100 nM and greater than 50 nM.
In the case of `CC(C)c1cnc(N(C)C)c2cnc(Nc3ccnc(N4CC[C@@H](O)[C@@H](F)C4)n3)cc12` [Example 94, (3S,4R)-1-(4-((8-(dimethylamino)-5-isopropyl-2,7-naphthyridin-3-yl)amino)pyrimidin-2-yl)-3-fluoropiperidin-4-ol], the IC50 was 30 to 100 nM on EGFR (L858R T790M C797S) and greater than 50 nM in test [1].
Turning to `CNc1nnc(C(C)C)c2cc(Nc3ccnc(N4CC[C@@H](O)[C@@H](F)C4)n3)ncc12` [Example 95], the IC50 at EGFR (L858R T790M C797S) was greater than 100 nM; in test [1] it was greater than 50 nM.
As to `C=CC(=O)Nc1cc(Nc2nccc(-c3cn(C)c4ccccc34)n2)c(OC)cc1N(C)CCN(C)C` [osimertinib], the “time of treatment until resistance is observed” value in test [2] is “approximately 10 months”.
